Measured values reported in patent US11976083B2, “Inhibitors of peptidylarginine deiminases” (Gilead Sciences, Inc., priority 2020, dated 2024).

target: T1, human PAD4 (Homo sapiens, UniProt Q9UM07); assay: In vitro PAD4 BAEE biochemical assay; settings: BAEE substrate 3 mM, 5 nM PAD4, 2 mM calcium chloride; geometric mean of multiple experiments
T1 construct: human PAD4 (NM_012387), A2-P663, was PCR amplified; His-SUMO (N, cleaved yes); made in house; host or cells: E. coli BL21(DE3)
Summary of the method: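 Ammonia produced by BAEE deimination (3 mM substrate, 2 h, 25 °C) was read as fluorescent isoindole after o-phthalaldehyde/DTT derivatization, ex 405 nm/em 535 nm. Human PAD4 at 5 nM final, 2 mM calcium, pH 7.6 MOPS; compound preincubated 30 min. IC50s, normalized to BB-Cl-Amidine and DMSO controls, were geometric-mean averaged.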

T1 sequence (Q9UM07 2-663): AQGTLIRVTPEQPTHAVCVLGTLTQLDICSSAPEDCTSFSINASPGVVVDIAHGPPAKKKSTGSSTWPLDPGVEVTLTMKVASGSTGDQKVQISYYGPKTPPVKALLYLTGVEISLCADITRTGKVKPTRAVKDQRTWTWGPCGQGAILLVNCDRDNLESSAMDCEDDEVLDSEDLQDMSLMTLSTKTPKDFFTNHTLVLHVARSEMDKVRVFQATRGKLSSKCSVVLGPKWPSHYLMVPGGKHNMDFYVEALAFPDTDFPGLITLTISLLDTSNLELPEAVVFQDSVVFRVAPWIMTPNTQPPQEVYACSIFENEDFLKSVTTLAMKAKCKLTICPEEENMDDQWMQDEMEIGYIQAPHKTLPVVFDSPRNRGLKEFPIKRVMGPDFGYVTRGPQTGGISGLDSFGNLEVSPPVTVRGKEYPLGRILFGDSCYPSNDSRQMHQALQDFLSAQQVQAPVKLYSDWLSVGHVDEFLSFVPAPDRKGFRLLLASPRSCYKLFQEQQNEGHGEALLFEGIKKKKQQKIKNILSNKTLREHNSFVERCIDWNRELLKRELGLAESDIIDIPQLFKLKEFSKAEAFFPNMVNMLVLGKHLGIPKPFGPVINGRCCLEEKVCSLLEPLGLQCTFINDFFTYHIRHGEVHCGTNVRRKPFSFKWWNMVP

Compound	IC50
COc1cc(C(=O)N2[C@H]3CC[C@@H]2[C@H](N)C3)cc2nc(-c3cc4ccc5nc4n3CCCCCCCCC(=O)N[C@@H]5C)c(C)n12 [Example 318, (12~{R})-18-[7-[(1~{R},2~{R},4~{S})-2-amino-7-azabicyclo[2.2.1]heptane-7-carbonyl]-5-methoxy-3-methyl-imidazo[1,2-a]pyridin-2-yl]-12-methyl-1,11,20-triazatricyclo[11.5.2.0^{16,19}]icosa-13(20),14,16(19),17-tetraen-10-one]	18 nM
COc1cc(C(=O)N2[C@H]3CC[C@@H]2[C@H](N)C3)cc2nc(-c3cc4ccc5nc4n3CCCCCCCC(=O)N(C)[C@@H]5C)c(C)n12 [Example 319, (11~{R})-17-[7-[(1~{R},2~{R},4~{S})-2-amino-7-azabicyclo[2.2.1]heptane-7-carbonyl]-5-methoxy-3-methyl-imidazo[1,2-a]pyridin-2-yl]-10,11-dimethyl-1,10,19-triazatricyclo[10.5.2.0^{15,18}]nonadeca-12(19),13,15(18),16-tetraen-9-one]	266 nM
COc1cc(C(=O)N2[C@H]3CC[C@@H]2[C@H](N)C3)cc2nc(-c3cc4ccc5nc4n3CCCCCC(=O)N[C@@H]5C)c(C)n12 [Example 320, (9~{R})-15-[7-[(1~{R},2~{R},4~{S})-2-amino-7-azabicyclo[2.2.1]heptane-7-carbonyl]-5-methoxy-3-methyl-imidazo[1,2-a]pyridin-2-yl]-9-methyl-1,8,17-triazatricyclo[8.5.2.0^{13,16}]heptadeca-10(17),11,13(16),14-tetraen-7-one]	17 nM
COc1cc(C(=O)N2[C@H]3CC[C@@H]2[C@H](N)C3)cc2nc(-c3cc4ccc5nc4n3CCCCOCCC(=O)N[C@@H]5C)c(C)n12 [Example 321, (11~{R})-17-[7-[(1~{R},2~{R},4~{S})-2-amino-7-azabicyclo[2.2.1]heptane-7-carbonyl]-5-methoxy-3-methyl-imidazo[1,2-a]pyridin-2-yl]-11-methyl-6-oxa-1,10,19-triazatricyclo[10.5.2.0^{15,18}]nonadeca-12(19),13,15(18),16-tetraen-9-one]	32 nM
COc1cc(C(=O)N2[C@H]3CC[C@@H]2[C@H](N)C3)cc2nc(-c3cc4ccc5nc4n3C[C@@H]3C[C@H]3COCCC(=O)N[C@@H]5C)c(C)n12 [Example 322, (3~{R},5~{R},12~{R})-18-[7-[(1~{R},2~{R},4~{S})-2-amino-7-azabicyclo[2.2.1]heptane-7-carbonyl]-5-methoxy-3-methyl-imidazo[1,2-a]pyridin-2-yl]-12-methyl-7-oxa-1,11,20-triazatetracyclo[11.5.2.0^{3,5}.0^{16,19}] icosa-13(20),14,16(19),17-tetraen-10-one]	15 nM
COc1cc(C(=O)N2[C@H]3CC[C@@H]2[C@H](N)C3)cc2nc(-c3cc4ccc5nc4n3C[C@H]3C[C@@H]3COCCC(=O)N[C@@H]5C)c(C)n12 [Example 323, (3~{S),5~{S},12~{R})-18-[7-[(1~{R},2~{R},4~{S})-2-amino-7-azabicyclo[2.2.1]heptane-7-carbonyl]-5-methoxy-3-methyl-imidazo[1,2-a]pyridin-2-yl]-12-methyl-7-oxa-1,11,20-triazatetracyclo[11.5.2.0^{3,5}.0^{16,19}] icosa-13(20),14,16(19),17-tetraen-10-one]	14 nM
COc1cc(C(=O)N2[C@H]3CC[C@@H]2[C@H](N)C3)cc2nc(-c3cc4ccc5nc4n3CCCCOCC(=O)N[C@@H]5C)c(C)n12 [Example 324, (10~{R})-16-[7-[(1~{R},2~{R},4~{S})-2-amino-7-azabicyclo[2.2.1]heptane-7-carbonyl]-5-methoxy-3-methyl-imidazo[1,2-a]pyridin-2-yl]-10-methyl-6-oxa-1,9,18-triazatricyclo[9.5.2.0^{14,17}]octadeca-11(18),12,14(17),15-tetraen-8-one]	36 nM
COc1cc(C(=O)N2[C@H]3CC[C@@H]2[C@H](N)C3)cc2nc(-c3cc4ccc5nc4n3C[C@H]3C[C@@H]3COCC(=O)N[C@@H]5C)c(C)n12 [Example 325, (3~{S},5~{S},11~{R})-17-[7-[(1~{R},2~{R},4~{S})-2-amino-7-azabicyclo[2.2.1]heptane-7-carbonyl]-5-methoxy-3-methyl-imidazo[1,2-a]pyridin-2-yl]-11-methyl-7-oxa-1,10,19-triazatetracyclo[10.5.2.0^{3,5}.0^{15,18}] nonadeca-12(19),13,15(18),16-tetraen-9-one]	16 nM
COc1cc(C(=O)N2[C@H]3CC[C@@H]2[C@H](N)C3)cc2nc(-c3cc4ccc5nc4n3C[C@@H]3C[C@H]3COCC(=O)N[C@@H]5C)c(C)n12 [Example 326, (3~{R},5~{R},11~{R})-17-[7-[(1~{R},2~{R},4~{S})-2-amino-7-azabicyclo[2.2.1]heptane-7-carbonyl]-5-methoxy-3-methyl-imidazo[1,2-a]pyridin-2-yl]-11-methyl-7-oxa-1,10,19-triazatetracyclo[10.5.2.0^{3,5}.0^{15,18}] nonadeca-12(19),13,15(18),16-tetraen-9-one]	30 nM
COc1cc(C(=O)N2[C@H]3CC[C@@H]2[C@H](N)C3)cc2nc(-c3cc4ccc5nc4n3CC3(CC3)COCCC(=O)N[C@@H]5C)c(C)n12 [Example 329, (10~{R})-16-[7-[(1~{R},2~{R},4~{S})-2-amino-7-azabicyclo[2.2.1]heptane-7-carbonyl]-5-methoxy-3-methyl-imidazo[1,2-a]pyridin-2-yl]-10-methyl-spiro[5-oxa-1,9,18-triazatricyclo[9.5.2.0^{14,17}]octadeca-11(18),12,14(17),15-tetraene-3,1′-cyclopropane]-8-one]	48 nM
COc1cc(C(=O)N2[C@H]3CC[C@@H]2[C@H](N)C3)cc2nc(-c3cc4ccc5nc4n3CCC3(CCOCC(=O)N[C@@H]5C)CC3)c(C)n12 [Example 330, (11~{R})-17-[7-[(1~{R},2~{R},4~{S})-2-amino-7-azabicyclo[2.2.1]heptane-7-carbonyl]-5-methoxy-3-methyl-imidazo[1,2-a]pyridin-2-yl]-11-methyl-spiro[7-oxa-1,10,19-triazatricyclo[10.5.2.0^{15,18}]nonadeca-12(19),13,15(18),16-tetraene-4,1′-cyclopropane]-9-one]	80 nM
COc1cc(C(=O)N2[C@H]3CC[C@@H]2[C@H](N)C3)cc2nc(-c3cc4ccc5nc4n3CCC3(CC3)COCCC(=O)N[C@@H]5C)c(C)n12 [Example 331, (11~{R})-17-[7-[(1~{R},2~{R},4~{S})-2-amino-7-azabicyclo[2.2.1]heptane-7-carbonyl]-5-methoxy-3-methyl-imidazo[1,2-a]pyridin-2-yl]-11-methyl-spiro[6-oxa-1,10,19-triazatricyclo[10.5.2.0^{15,18}]nonadeca-12(19),13,15(18),16-tetraene-4,1′-cyclopropane]-9-one]	69 nM
COc1cc(C(=O)N2[C@H]3CC[C@@H]2[C@H](N)C3)cc2nc(-c3cc4ccc5nc4n3CCCCC[C@H](OC)CC(=O)N[C@@H]5C)c(C)n12 [Example 332, (7~{S},11~{R})-17-[7-[(1~{R},2~{R},4~{S})-2-amino-7-azabicyclo[2.2.1]heptane-7-carbonyl]-5-methoxy-3-methyl-imidazo[1,2-a]pyridin-2-yl]-7-methoxy-11-methyl-1,10,19-triazatricyclo[10.5.2.0^{15,18}]nonadeca-12(19),13,15(18),16-tetraen-9-one]	20 nM
COc1cc(C(=O)N2[C@H]3CC[C@@H]2[C@H](N)C3)cc2nc(-c3cc4ccc5nc4n3CCCCC[C@@H](OC)CC(=O)N[C@@H]5C)c(C)n12 [Example 333, (7~{R},11~{R})-17-[7-[(1~{R},2~{R},4~{S})-2-amino-7-azabicyclo[2.2.1]heptane-7-carbonyl)-5-methoxy-3-methyl-imidazo[1,2-a]pyridin-2-yl]-7-methoxy-11-methyl-1,10,19-triazatricyclo[10.5.2.0^{15,18}]nonadeca-12(19),13,15(18),16-tetraen-9-one]	33 nM
COc1cc(C(=O)N2[C@H]3CC[C@@H]2[C@H](N)C3)cc2nc(-c3cc4ccc5nc4n3C[C@H]3C[C@H]3COCCC(=O)N[C@@H]5C)n(C)c12 [Example 336, (3~{S),5~{R},12~{R})-18-[5-[(1~{R},2~{R},4~{S})-2-amino-7-azabicyclo[2.2.1]heptane-7-carbonyl]-7-methoxy-1-methyl-benzimidazol-2-yl]-12-methyl-7-oxa-1,11,20-triazatetracyclo[11.5.2.0^{3,5}.0^{16,19}] icosa-13(20),14,16(19),17-tetraen-10-one]	34 nM
COc1cc(C(=O)N2[C@H]3CC[C@@H]2[C@H](N)C3)cc2nc(-c3cc4ccc5nc4n3C[C@@H]3C[C@@H]3COCCC(=O)N[C@@H]5C)n(C)c12 [Example 337, (3~{R},5~{S},12~{R})-18-[5-[(1~{R},2~{R},4~{S})-2-amino-7-azabicyclo[2.2.1]heptane-7-carbonyl]-7-methoxy-1-methyl-benzimidazol-2-yl]-12-methyl-7-oxa-1,11,20-triazatetracyclo[11.5.2.0^{3,5}.0^{16,19}] icosa-13(20),14,16(19),17-tetraen-10-one]	32 nM
COc1cc(C(=O)N2[C@H]3CC[C@@H]2[C@H](N)C3)cc2nc(-c3cc4ccc5nc4n3CC[C@H]3C[C@H]3COCCC(=O)N[C@@H]5C)n(C)c12 [Example 338, (4~{R},6~{R},13~{R})-19-[5-[(1~{R},2~{R},4~{S})-2-amino-7-azabicyclo[2.2.1]heptane-7-carbonyl]-7-methoxy-1-methyl-benzimidazol-2-yl]-13-methyl-8-oxa-1,12,21-triazatetracyclo[12.5.2.0^{4,6}.0^{17,20}] henicosa-14(21),15,17(20),18-tetraen-11-one]	53 nM
